The text below walks through data of paper PMC10505102 (Cellular and Molecular Life Sciences: CMLS, 2023).

Where a SMILES comes first, the peptide text is derived from it. Bridges are numbered along the chain shown (N, C = ends).

Data set [1] concerns C2C12 cells. Kind of data set: Glucose consumption assay (colorimetric). Conditions: C2C12, 1 h; 20 µM aM1 (24 h pretreated) or 100 nM insulin; glucose assay kit, n = 3.
Procedure: Glucose consumption was estimated by depleting glucose levels of the growth medium using a glucose assay kit. […] Relative glucose uptake was measured in wild-type (top) and insulin-resistant (bottom) C2C12-myotubes and 3T3-L1-adipocytes using a 2NBDG uptake assay to estimate the glucose consumption of cells treated with the respective compounds.
Glucose consumption was estimated by measuring the depletion of glucose levels in the growth medium over time. Glucose quantification was carried out using a glucose assay kit (Sigma, USA). […] After glucose introduction, glucose levels in the culture medium at 0 and 60 min were estimated colorimetrically at an absorbance wavelength of 570 nm. The protein content of each well was measured with a BCA protein assay to normalize glucose uptake results. Statistical significance was calculated based on three individual assays.
The next data set has as its system GLUT4. As to the kind of experiment: GLUT4 translocation assay (Myc-GLUT4-mCherry C2C12). Conditions: 20 μM aM1 24 h; 100 nM insulin 30 min. It counts as cell-based, mouse. The text has this:
In skeletal muscles and adipocytes, insulin-induced glucose uptake is predominantly mediated by GLUT4 glucose transporters. […] We determined GLUT4-mediated glucose uptake using a stable C2C12 cell line expressing Myc-GLUT4-mCherry fusion protein that has a Myc epitope attached to the first N-terminal exofacial loop in GLUT4 and a mCherry fusion at the GLUT4 C terminus that allows detection of membrane-embedded GLUT4 under nonpermeabilized conditions (Fig. S6D).
The GLUT4 translocation assay was adapted from a published protocol. The pEGFP-myc-GLUT4-mCherry recombinant construct for GLUT4 fusion protein was generated using the pLenti-myc-GLUT4-mCherry plasmid (Addgene plasmid #64049). C2C12 cells were transfected with the recombinant plasmid using a Lipofectamine 3000 Transfection Kit (Thermo Scientific, USA). Stably transfected cells were selected and grown for further assays. […] The positive control group was treated with 100 nM insulin for 30 min, and the mock control was treated with PBS. After treatment, the culture medium was aspirated, and the cells were washed three times with PBS. Nonpermeabilized cells were immediately fixed with 10% formalin for 30 min, washed, and blocked with 1% BSA for 1 h at RT. After blocking, the cells were incubated with Alexa Fluor 488-conjugated c-Myc antibodies overnight at 4 °C. […]

Data set [2] relates to insulin-resistant 3T3-L1-adipocytes. As to the kind of experiment: 2-NBDG glucose uptake, fluorometric. It counts as cell-based, mouse. Conditions: 20 µM aM1 or pioglitazone 24 h, 100 nM insulin 30 min.
Procedure: 3T3-L1 cells were maintained in growth medium (high-glucose DMEM [Dulbecco's modified Eagle's medium; Gibco], 10% FBS (fetal bovine serum; Gibco) and 1% penicillin/streptomycin (Gibco)]). Confluent 3T3-L1 fibroblast cells were then incubated with MDI induction medium (1 μM dexamethasone, 0.5 mM IBMX (isobutylmethylxanthine), and 100 nM insulin in high-glucose DMEM containing 10% FBS. At 2 days post-confluence and 2 days after exposure to the MDI induction medium, the medium was replaced with 100 nM insulin containing high-glucose DMEM supplemented with 10% FBS. Thereafter, the medium was replaced with a growth medium every 2 days to maintain the cells in culture. Cells were maintained in a 100 nM insulin-containing growth medium for the insulin-resistant phenotype. Differentiation was confirmed with Oil Red to visualize lipid droplets (Fig. S13C). […]
Glucose uptake was measured using 2-NBDG, a fluorescently labeled deoxyglucose analog. […] Fluorometric quantification was performed using a microplate reader (Tecan Magellan™, Switzerland) with excitation and emission wavelengths of 467 nm and 542 nm, respectively. Protein content was measured with a BCA protein assay to normalize fluorometric results. […] Images were captured using the green fluorescence channel of a Nikon ECLIPSE Ti-S inverted microscope system (Nikon, Kanagawa, Japan). […]
The subject of data set [3] is Akt in insulin-resistant-C2C12 myotubes. As to the kind of experiment: Western blot of insulin-mediated Akt phosphorylation after aM1 pretreatment. Conditions: IR myotubes, no aM1 pretreatment. For orientation: A western blot detects proteins with antibodies after separation by electrophoresis.
Source text: A Relative insulin sensitivity in insulin-resistant (IR) myotubes and adipocytes. […] Glucose uptake of cells after insulin stimulation was quantified using a 2NBDG assay to estimate relative insulin sensitivity, which is expressed as the mean value (± SD) of three independent experimental replicates (analysis of variance (ANOVA) with Sidak's multiple comparisons test). *p < 0.05 compared to PBS control and ^#p < 0.05 compared to INS control. […] GAPDH served as a loading control. […] E RT-qPCR analysis of normal proximal insulin signaling genes in IR myotubes. […] Data are expressed as mean ± SEM (n = 4, ANOVA with Sidak's multiple comparisons test). *p < 0.05 versus control groups
(§11) Each protein sample (30 µg) was resolved on a 10% acrylamide gel and transferred onto a PVDF membrane. Immunoblotting was performed using anti-protein antibodies and detected with an ECL system.
In data set [4] the test system is PI3K/Akt signaling in wild-type C2C12 myotubes. Kind of data set: Western blot of PI3K/Akt signaling. Conditions: WT C2C12 myotubes; aM1 24 h; insulin 30 min.
Procedure: C–D Data in each group were normalized with respect to GAPDH expression and stated as fold-change relative to PBS control cells for WT C2C12-myotubes (panel C) and IR C2C12-myotubes (panel D).
as §11
The subject of data set [5] is IRS1/2 in insulin-resistant C2C12 myotubes. As to the kind of experiment: Western blot of IRS1/2 level and IRS1 phosphorylation. Conditions: IR myotubes; insulin 30 min, with or without aM1 24 h pretreatment.
Procedure: A Western blots showing the relative protein levels of IRS1/2 in insulin-resistant (IR.) C2C12-myotubes. […] B IRS1/2 gene expression analyzed by RT-qPCR under respective experimental conditions. Data for each group were normalized and represented the fold change relative to the PBS control group. […] Western blots of IRS1 at S318 (C) and S1101 D phosphorylation levels.
as §11
Data set [6] has as its system PI3K/Akt signaling in wild-type 3T3-L1 adipocytes. As to the kind of experiment: Western blot of PI3K/Akt signaling. Conditions: WT 3T3-L1 adipocytes.
Procedure: as §11
Data in each g roup were normalized and expressed as a fold of PBS-
treated respective control cells. Each bar represents mean ± SD ( n=3, analysis of variance
(ANOVA) with Tukey's multiple comparisons test). *p<0.05 versus PBS-control groups and
#p<0.05 versus INS-treated groups.
In data set [7] the test system is C2C12-myotubes, 3T3-L1-adipocytes, and HEPG2 cells. Kind of data set: Glucose uptake with insulin receptor inhibitor HNMPA. It counts as cell-based. Conditions: 100 µM HNMPA 1 h; 100 nM insulin 30 min. The procedure: (§1) The relative glucose uptake in each group is expressed as fold-change relative to the respective PBS-treated control groups.
(§2) Akt activation-mediated signaling was inhibited using the Akt-inhibitor GSK690693. Hydroxy-2-naphthalenylmethylphosphonic acid (HNMPA) was used to block insulin receptor activation. […] PBS was used for mock-treated groups. All experiments had at least three independent replicates.
(§3) Assays were performed in triplicate.

A further data set deals with CHO-K1 cells. Conditions: concentrations up to 200 µM; cited from earlier work.
The subject of the next data set is 3T3-L1 cells. Conditions: 3T3-L1, aM1 up to 100 µM, 24 h, n=3. How it is done: (§4) The MTT-containing culture medium was aspirated, and the formazan crystals were dissolved in DMSO for colorimetric quantification at 570 nm using a microplate reader (Tecan Magellan™, Switzerland) with a reference wavelength of 630 nm. DMSO was used as vehicle control, and 1% Triton X-100 was used as a cytotoxicity-inducing agent (positive control). Experimental triplicates were used for statistical analyses. […]
(§5) including an alkaline environment (ammonium bicarbonate buffer, pH 8) with trypsin (A) and chymotrypsin (B) and simulated gastric fluid (0.1N HCl, pH 1.2) with pepsin f or 4h at 37°C (C) and respective buffers were used as vehicle controls. Peptide quantif ication was perf ormed using RP-HPLC, and data are shown as mean (± SD), calculated from experimental triplicates.
(§6) 48h, and intact peptides were quantif ied using RP-HPLC. PBS was used as vehicle control.
(§7) Data are presented as mean (± SD), calculated from individual experimental triplicates. E) […]
(§8) Triton X 100 (TX -100) was used as a positive control f or cell death. (n=3, unpaired multiple t- […]
(§9) F) LDH release-based cytotoxicity and plasma membrane damaging analysis of […]
(§10) (n=3, unpaired multiple t-test with Holm-

The next data set relates to HEPG2 cells. Conditions: HEPG2, aM1 up to 100 µM, 24 h, n=3. How it is done: as §4, §5, §6, §7, §8, §9, §10
Data set [8] concerns C2C12 cells. Conditions: C2C12, aM1 up to 100 µM, 24 h, n=3. The procedure: as §4, §5, §6, §7, §8, §9, §10
Another data set has as its system mammalian cells. Conditions: aM1 up to 100 µM, 24 h, n=3. The procedure: DMSO was used as the vehicle control. […]
as §5, §6, §7, §8, §9, §10

In data set [9] the test system is C2C12 myotubes, 3T3-L1 adipocytes, and HEPG2 cells. Kind of data set: Glucose uptake with Akt inhibitor GSK690693. In kind it is cell-based. Conditions: 2.5 µM GSK690693 1 h; 20 µM aM1 24 h pretreated or 100 nM insulin 30 min. How it is done:
as §1, §2, §3

insulin: the “increase in glucose consumption compared to untreated control cells” value in the data set with C2C12 cells [1] was “similar”. Besides, the “surface GLUT4 (anti-Myc fluorescence, nonpermeabilized cells) vs PBS control” value with GLUT4 is reported as “increased amounts of GLUT4 at the cell surface”. The “increase in glucose uptake relative to untreated cells” value in [2] is listed as “remained at basal levels”. Also, the “phosphorylated Akt levels after insulin stimulation alone” value in [3] is “remained at basal levels”. In addition, the “total Akt expression” value in [4] is “no significant differences”. Besides, the “IRS1 phosphorylation at Ser318” value in [5] is listed as “increased significantly”. Also, in [6], the “PDK1 phosphorylation at Ser242” value is on record as “significant increase” and the “total Akt expression” value is listed as “no significant differences”. Besides, in data set [6] (n=3), the “Akt phosphorylation at Ser473, increase relative to untreated cells” value is reported as “expected Akt phosphorylation was observed” and the “Akt phosphorylation at Thr308, increase relative to untreated cells” value is reported as “expected Akt phosphorylation was observed”.
With `O=P(O)(O)C(O)c1ccc2ccccc2c1` (stereo not drawn) [HNMPA, hydroxy-2-naphthalenylmethylphosphonic acid], in data set [7], the “insulin-mediated glucose uptake on HNMPA treatment” value was “completely blocked”.
For the molecule `CC[C@H](C)[C@H](NC(=O)[C@@H]1CSSC[C@@H]2NC(=O)[C@@H]3CCCN3C(=O)[C@@H]3CCCN3C(=O)[C@H](C(C)C)NC(=O)[C@H](CCC(=O)O)NC(=O)[C@H](Cc3ccccc3)NC(=O)[C@@H]3CCCN3C(=O)[C@H](CO)NC(=O)[C@@H]3CSSC[C@H](NC(=O)[C@H](CCCNC(=N)N)NC(=O)[C@H](CSSC[C@H](NC(=O)[C@H](CC(=O)O)NC(=O)[C@@H](N)C(C)C)C(=O)N[C@@H](CO)C(=O)NCC(=O)N[C@@H](C)C(=O)N3)NC(=O)[C@H](CC(=O)O)NC(=O)[C@H](CCCNC(=N)N)NC(=O)[C@H](CO)NC(=O)CNC2=O)C(=O)N[C@@H]([C@@H](C)CC)C(=O)N2CCC[C@H]2C(=O)N[C@@H]([C@@H](C)CC)C(=O)NCC(=O)N[C@@H](CC(C)C)C(=O)N[C@@H](C(C)C)C(=O)N[C@@H](C(C)C)C(=O)NCC(=O)N[C@@H](Cc2ccccc2)C(=O)N1)C(=O)N[C@@H](Cc1ccc(O)cc1)C(=O)N1CCC[C@H]1C(=O)N[C@H](C(=O)NCC(=O)O)[C@@H](C)O` [aM1] (H-VDCSGACSPFEVPPCGSRDCRCIPIGLVVGFCIYPTG-OH; disulfide 3-20, 7-22, 15-32), in the data set on CHO-K1 cells, the “toxicity to CHO-K1 cells” value is “no toxicity”. The “cell viability (MTT)” value in the data set on 3T3-L1 cells, in the data set with HEPG2 cells and with C2C12 cells [8] was “No substantial changes in cell viability” throughout. Also, in the data set with mammalian cells, the “LDH release (membranolytic or cytotoxic effects)” value was “no significant membranolytic or cytotoxic effects”.
For `CCc1ccc(CCOc2ccc(CC3SC(=O)NC3=O)cc2)nc1` (stereo not drawn) [pioglitazone], the “increase in glucose uptake relative to untreated cells” value in [2] amounted to 1.6 fold.
`CCn1c(-c2nonc2N)nc2c(C#CC(C)(C)O)ncc(OC[C@H]3CCCNC3)c21` [GSK690693]: in [9], the “insulin- and aM1-mediated glucose uptake on co-treatment with GSK690693” value is “inhibited”.
